Experimental data from patent publication EP4631931A1, “HDAC INHIBITOR AND USE THEREOF” (Wigen Biomedicine Technology (Shanghai) Co., Ltd., priority 2022, dated 2024).

Assays:
[1] = Pharmacokinetic experiment in mice; assay type: in vivo, CD-1 female mice; details: female, CD-1, mouse, plasma; for Vd: read-out: Vdss
Protocol: CD-1 female mice aged 7 to 10 weeks were intravenously administered and orally administered at doses of 1 mg/kg and 10 mg/kg, respectively. The mice were fasted for at least 12 h before the administration and given food 4 h after the administration, and they were given ad libitum access to water during the experiment.
On the day of the experiment, animals in the intravenous group were given the corresponding compound by single injection via the tail vein at an administration volume of 10 mL/kg; and animals in the oral group were given the corresponding compound by single intragastric injection at an administration volume of 10 mL/kg. The animals were weighed before administration, and the administration volume was calculated according to the body weight. The sample collection time points were 0.083 h, 0.167 h, 0.5 h, 1 h, 2 h, 4 h, 8 h, and 24 h. About 200 µL of whole blood was collected through the orbital venous plexus at each time point and used to prepare plasma for concentration determination by high-performance liquid chromatography-tandem mass spectrometry (LC-MS/MS). The plasma concentrations were processed using a non-compartmental model of Winnolin pharmacokinetic software, and the pharmacokinetic parameters were calculated using a linear-log trapezoidal method. Table 13. Results of in vivo pharmacokinetic evaluation of compounds of the present disclosure

Jurkat cell = test: Inhibition of Jurkat cell proliferation (CTG, intracellular ATP); assay type: cell-based; details: Homo sapiens, 72 h, compared to DMSO group, read-out: Inhibitory activity against Jurkat cell proliferation (IC50)
Protocol: (§1) Jurkat or 293T cells were seeded into a 96-well plate at 3000 cells/well. After overnight adherence culture, the serially diluted compound in DMSO was added. After 72 h, the intracellular ATP level was determined by CTG. The IC50 for the inhibition of cell proliferation by the compounds was calculated compared to the DMSO group. Table 8. Inhibitory activity of compounds of the present disclosure against Jurkat/293T cell proliferation (IC50, µM)

293T cell = test: Inhibition of 293T cell proliferation (CTG, intracellular ATP); assay type: cell-based; details: Homo sapiens, HEK-293T, 72 h, compared to DMSO group, read-out: Inhibitory activity against 293T cell proliferation (IC50)
Protocol: as §1

[2] = Stability in liver microsomes; assay type: in vitro ADME; details: 1 µM compound, NADPH, 37 °C
Protocol: After the 1 µM compound was incubated with 0.5 mg/mL of human or mouse liver microsomes and an NADPH regeneration system at 37 °C for different times, respectively, LC-MS-MS was used to analyze the remaining amount of the compound and calculate T1/2. Table 12. Evaluation results of stability of compounds of the present disclosure in human and mouse liver microsomes

HeLa cells = test: Intracellular acetyl lysine / H3K 27 acetyl lysine level by ELISA; assay type: cell-based; details: 24 h of treatment
Protocol: HeLa cells were seeded into a 96-well plate at 20000 cells/well. After overnight adherence culture, the serially diluted compound was added. After 24 h of treatment, intracellular levels of acetyl lysine and H3K 27 acetyl lysine were quantified by ELISA. Table 9. Effect of compound of the present disclosure on levels of acetyl lysine and H3K 27 acetyl lysine

[3] = Injection (1 mg/kg), intravenous
[4] = Human liver microsomes 0.5 mg/mL
[5] = Mouse liver microsomes 0.5 mg/mL

SMILES	AUC(0-t) [1, 3]	clearance [1, 3]	half-life [1, 3]	Vd [1, 3]	AUC(0-t) ([1]; Oral administration (10 mg/kg))	Cmax ([1]; Oral administration (10 mg/kg))	Tmax ([1]; Oral administration (10 mg/kg))	bioavailability ([1]; Oral administration (10 mg/kg))	half-life ([1]; Oral administration (10 mg/kg))	IC50 (Jurkat cell)	IC50 (293T cell)	CLint scaled at 1 µM [2, 4]	Clliver [2, 4]	half-life at 1 µM [2, 4]	CLint scaled at 1 µM [2, 5]	Clliver [2, 5]	half-life at 1 µM [2, 5]	Acetyl lysine Maximum (%) (HeLa cells)	Acetyl lysine Minimum effective concentration (HeLa cells)	H3K 27 Acetyl lysine Maximum (%) (HeLa cells)	also measured
[2H]c1ccc(/C=C/C(=O)NCc2ccc(C(=O)Nc3ccc(F)cc3N)cc2)cn1 [Compound 12]	514 ng·h/mL	32.4 mL/min/kg	1.17 h	0.71 L/kg	1610 ng·h/mL	2080 ng/mL	0.17 h	30.5%	1.93 h	1590 nM	5310 nM	2.87 mL/min/kg	2.52 mL/min/kg	10.1 h	108 mL/min/kg	49.05 mL/min/kg	0.844 h				
[2H]c1cncc(/C=C/C(=O)NCc2ccc(C(=O)Nc3ccc(F)cc3N)cc2)c1 [Compound 11]	733 ng·h/mL	22.7 mL/min/kg	1.79 h	0.62 L/kg	1330 ng·h/mL	2370 ng/mL	0.08 h	18.2%	1.19 h	950 nM	5160 nM	23.7 mL/min/kg	11.04 mL/min/kg	1.22 h	231 mL/min/kg	64.76 mL/min/kg	0.394 h	450%	80 nM	460%	H3K 27 Acetyl lysine Minimum effective concentration (HeLa cells): 80 nM
[2H]c1c(F)ccc(NC(=O)c2ccc(CNC(=O)/C=C/c3cccnc3)cc2)c1N [Compound 2]	441 ng·h/mL	37.8 mL/min/kg	2.3 h	1.61 L/kg	2160 ng·h/mL	2360 ng/mL	0.08 h	46.5%	1.85 h	1680 nM	> 10000 nM							420%	16 nM	360%	H3K 27 Acetyl lysine Minimum effective concentration (HeLa cells): 80 nM
[2H]c1cc(F)cc(N)c1NC(=O)c1ccc(CNC(=O)/C=C/c2cccnc2)cc1 [Compound 3]	592 ng·h/mL	28.1 mL/min/kg	2.78 h	0.93 L/kg	1770 ng·h/mL	2350 ng/mL	0.08 h	26.3%	2.21 h	1860 nM	7500 nM										
